Laboratory results from patent publication US20250312258A1, “2,3-PYRROLIDINEDIONE CONJUGATES AND METHODS OF USING THEREOF” (North Carolina State University, priority 2022, published 2025).
Converted amounts (≈) assume the structure as drawn.

Experiments:
S. aureus 25923 = experiment: Broth microdilution MIC, S. aureus 25923; type: cell-based, Staphylococcus aureus; conditions: Staphylococcus aureus, 25923; read-out: MIC (S. aureus 25923)
MRSA 33591 = experiment: Broth microdilution MIC, MRSA 33591; type: cell-based; conditions: Staphylococcus aureus, read-out: MIC (MRSA 33591)
S. aureus 29213 = experiment: Broth microdilution MIC, S. aureus 29213; type: cell-based, Staphylococcus aureus; conditions: Staphylococcus aureus, 29213; read-out: MIC (S. aureus 29213)
VRSA = experiment: MIC against VRSA (Table 2); type: cell-based; conditions: Staphylococcus aureus, read-out: MIC (VRSA)
S. aureus VRS-2 = experiment: VRSA thigh infection model in neutropenic mice; type: in vivo, mouse; conditions: 50 mg/kg PO BID q12h, 26 h post-infection, p<0.05
Description: (§1) FIG. 8 is a plot comparing the efficacy of linezolid, Compound 4 (AV-0273), and Compound 8 (AV-0267) in the S. aureus VRS-2 thigh infection model, CFU/g thigh. Test animals were rendered neutropenic with cyclophosphamide administration, 150 mg/kg on Day −4 then 100 mg/kg on Day −1 prior to infection on Day 0. On Day 0, animals were intramuscularly inoculated with 8.4×10^4 CFU/mouse (0.1 mL/animal) of the S. aureus VRS-2 strain. The vehicle and the test articles, Compound 4 (AV-0273) and Compound 8 (AV-0267), both at 100 mg/kg, were each intraperitoneally (IP) administered twice with a 12 h interval (BID q12h) at 2 and 14 h after infection. The reference standard, linezolid at 50 mg/kg, was orally (PO) administered BID q12 h starting at 2 h post-infection. Animals were sacrificed at 2 or 26 h post-infection, and the thigh tissues were harvested and weighed from each of the test animals. The bacterial counts (CFU/g thigh) of thigh tissue homogenates were measured.
as §1, with “FIG. 9” for “FIG. 8”, “of linezolid” for “of linezolid,”, “CFU/g thigh, change in bacterial counts relative to baseline count at 26h post-infection. Data represent the change in bacterial counts in thigh tissue following test article treatment relative to the initial 2 h CFU/g thigh or CFU/thigh at the time of dosing (baseline counts).” for “CFU/g thigh.”, “(BID q12 h)” for “(BID q12h)”, “(CFU/g thigh and CFU/thigh)” for “(CFU/g thigh)”, “were compared.” for “were measured.”
Example vancomycin-2,3-pyrrolidinediones conjugates were evaluated using an in vivo tissue infection model with vancomycin resistant MRSA:
Animal model: Murine thigh infection
Bacteria: VRSA (VRS-2). Gram Positive, Staphylococcus aureus (VRSA, VRS-2), Mouse Infected Thigh Model. VRS-2 is VanA producing SCC Mec II st5 train.
Vancomycin conjugates dose: 100 mg/Kg intraperitoneally (IP).
Application: This model assesses the antimicrobial efficacy of test articles in a tissue infection model with vancomycin resistant MRSA. Microbial counts are measured. […]

Row | SMILES | MIC (S. aureus 25923) | MIC (MRSA 33591) | MIC (S. aureus 29213) | MIC (VRSA) | reduction in bacterial counts compared to the vehicle control group (S. aureus VRS-2)
1 | CCC1C(c2ccc(C(F)(F)F)cc2)=C(O)C(=O)N1CCCCNC (stereo not shown) [Compound 2] | 2 µg/mL (≈ 5.61 µM) | 2 µg/mL (≈ 5.61 µM) | 1 µg/mL (≈ 2.81 µM) | – | –
2 | CCC1C(c2ccc(C(F)(F)F)cc2)=C(O)C(=O)N1CCCCCCNC (stereo not shown) [Compound 3] | 2 µg/mL (≈ 5.2 µM) | 2 µg/mL (≈ 5.2 µM) | 2 µg/mL (≈ 5.2 µM) | – | –
3 | CCC1C(c2ccc(C(F)(F)F)cc2)=C(O)C(=O)N1c1ccc(NC)cc1 (stereo not shown) [Compound 5] | 2 µg/mL (≈ 5.31 µM) | 1 µg/mL (≈ 2.66 µM) | 1 µg/mL (≈ 2.66 µM) | – | –
4 | CCC1C(c2ccc(C(F)(F)F)cc2)=C(O)C(=O)N1CCOCCNC (stereo not shown) [Compound 6] | 1 µg/mL (≈ 2.69 µM) | – | 1 µg/mL (≈ 2.69 µM) | – | –
5 | CCC1C(c2ccc(C(F)(F)F)cc2)=C(O)C(=O)N1CCOCCOCCOCCNC (stereo not shown) [Compound 7] | 2 µg/mL (≈ 4.34 µM) | 1 µg/mL (≈ 2.17 µM) | 1 µg/mL (≈ 2.17 µM) | 4 µg/mL (≈ 8.69 µM) | –
6 | CCC1C(c2ccc(C(F)(F)F)cc2)=C(O)C(=O)N1CCCNCCCCNCCCNC (stereo not shown) [Compound 9b] | 0.5 to 1 µg/mL (≈ 1.06 to 2.13 µM) | 1 µg/mL (≈ 2.13 µM) | 1 µg/mL (≈ 2.13 µM) | – | –
7 | CCC1C(c2ccc(C(F)(F)F)cc2)=C(O)C(=O)N1CCN(CCNC)CCN1C(=O)C(O)=C(c2ccc(C(F)(F)F)cc2)C1CC (stereo not shown) [Compound 10] | 16 µg/mL (≈ 23.9 µM) | 8 µg/mL (≈ 12 µM) | 8 µg/mL (≈ 12 µM) | – | –
8 | CC(=O)NC[C@H]1CN(c2ccc(N3CCOCC3)c(F)c2)C(=O)O1 [Linezolid, reference compound] | – | – | – | – | 100%
